Values quoted from earlier work in US11554095B1, “Mitomycin-C bladder instillation syringe kit” (Edge Pharma, LLC, priority 2019, dated 2023).

Legend:
[1] = urine

In the case of `CO[C@@]12[C@H](COC(N)=O)C3=C(C(=O)C(C)=C(N)C3=O)N1C[C@@H]1N[C@@H]12` [MMC, Mitomycin-C], the “decrease in MMC concentrations” value ([1]; pH 5, after 2 hours) is given as 44%, the “loss of MMC” value ([1]; pH 7, after 2 hours) is given as “less than 4%” and the “pH of solution in water” value (5 mg/mL solution in water) is given as 6.0-7.5. For the same molecule, the “pH of saturated solution” value (saturated solution) was 5.0-9.0.
